Values of other authors, collected in patent publication US7205435B2 (priority 2001, dated 2007).

Tested on: mouse phrenic nerve
Conditions: in vivo

Compound: CC(C)C[C@H](NP(=O)(O)O[C@@H]1O[C@@H](C)[C@H](O)[C@@H](O)[C@H]1O)C(=O)N[C@@H](Cc1c[nH]c2ccccc12)C(=O)O [phosphoramidon]
- effective dose: 0.2 mM
